Drawing on the OligoGym collection, this text covers target mRNA inhibition for 61 sequences.

Values joined by “and” are separate entries in the source; they are usually repeats but may differ in a detail not shown here. Identical values can stand only once. After the bases stand the sugars from the 5' end (letter, count) and the backbone: PS all phosphorothioate, else s phosphorothioate and o phosphodiester by linkage. Methylation of C is not given here. [mop] = methoxypropylphosphonate linkage; e = 2'-O-(2-methoxyethyl) (MOE); k = constrained ethyl (cEt); d = 2'-deoxy (DNA)

The target of this series is IRF5. The note with it: ASO.

“TGAGTCATGGGCTGAG (sugars kekdddddddddeekk, PS)”: the target mRNA inhibition (KARPAS-229, 4 µM) turned out to be 12%.
The sequence “CCACTGTGTACCCCAT (sugars k2 d9 e3 k2, PS)” displayed a target mRNA inhibition (KARPAS-229, 4 µM) of 64%.
The sequence CTCTAAACCATTCTAT (sugars k3 d10 k3, PS) registered a target mRNA inhibition (KARPAS-229, 4 µM) of 0%.
Same read-out and setting: then AGATGGTGTTATCTCC (sugars k3 d10 k3, PS), with 0%; and “ACCACTGTGTACCCCA (sugars kddddddddddkekek, PS)”, with 43%; and “CTGTCACATCTCCACA (sugars k2 d8 e4 k2, PS)”, with 11%.
Still for that read-out and setting: next, “TATTTCTGCTCCAGGT (sugars kkkddddddddkekek, PS)”: 24%.
“GGTCTTGACCTCCCGC (sugars kkdddddddddkekek, PS)”: where the note is “KARPAS-229, 4 µM”, the target mRNA inhibition came to 7%.
Same read-out and setting: next, AGTAGGACGAGTTATG (sugars k3 d10 k3, PS): 0%; “TGTCACATCTCCACAT (sugars kddddddddddkekek, PS)”: 16%; TAGGAGTGAGACGAGC (sugars k3 d10 k3, PS): 1%.
The sequence CTTGTCTAGTGTCATG (sugars k3 d10 k3, PS) had a target mRNA inhibition (KARPAS-229, 4 µM) of 58%.
With “TCCAATTTTGCATTCC (sugars kkkddddddddkekek, PS)”, the target mRNA inhibition (KARPAS-229, 4 µM) came out at 51%.
For the setting “KARPAS-229, 4 µM”, GCATTCCATATACACA (sugars k3 d10 k3, PS) yielded a target mRNA inhibition of 21%.
Still for that read-out and setting: next, “CAGGTTCTTGGACTCT (sugars kkddddddddddkeke, PS)”: 28%.
On the same count and under the same terms, then “CTTGGTCTTGACCTCC (sugars kddddddddddkekek, PS)”, with 0%; and “GATGGTGTTATCTCCG (sugars kkkddddddddkekek, PS)”, with 0%; and “TTATCTCCGTCCTGGC (sugars k2 d8 e4 k2, PS)”, with 0%.
On to TGCAGGGAGTCAGACC (sugars k3 d10 k3, PS), for which the target mRNA inhibition (KARPAS-229, 4 µM) is 0%.
“TATTTCTGCTCCAGGT (sugars k2 d9 e3 k2, PS)”: the target mRNA inhibition (KARPAS-229, 0.44444 µM) is 57%; the target mRNA inhibition (KARPAS-229, 1.33333 µM) amounted to 71%; the target mRNA inhibition (KARPAS-229, 12 µM) amounted to 83%.
As for “CCAATTTTGCATTCCA (sugars kkdddddddddkdkdk, PS)”, the target mRNA inhibition (KARPAS-229, 4 µM) came to 42%.
The same measure, in the same setting: next, “CCATTCTATGCCTTTT (sugars k2 d8 e4 k2, PS)”: 17%.
“GCTTGGTCTTGACCTC (sugars kkkdddddddddkeke, PS)” gave a target mRNA inhibition (KARPAS-229, 4 µM) of 35%.
Consider CATTCTATGCCTTTTA (sugars k3 d10 k3, PS), for which the target mRNA inhibition (KARPAS-229, 4 µM) was found to be 24%.
Still for that read-out and setting: next, “GTTCTTGGACTCTCAA (sugars kkdddddddddkdkdk, PS)”: 20%.
In turn, “CATTCTATGCCTTTTA (sugars kddddddddddkekek, PS)” came in with a target mRNA inhibition (KARPAS-229, 4 µM) of 37%.
As for “CCATTCTATGCCTTTT (sugars k3 d9 k3 e1, PS)”, the target mRNA inhibition is, setting by setting: (KARPAS-229, 0.44444 µM) 31%; (KARPAS-229, 1.33333 µM) 44%; (KARPAS-229, 4 µM) 58% and 70%; (KARPAS-229, 12 µM) 78%.
Sequence “TGAGTCTCAAACCAGG (sugars kkkddddddddkekek, PS)” had a target mRNA inhibition (KARPAS-229, 4 µM) of 0%.
In the case of “TGTCACATCTCCACAT (sugars kkddddddddkekekk, PS)”, the target mRNA inhibition (KARPAS-229, 4 µM) amounted to 0%.
With “GAGTCTCAAACCAGGG (sugars kkddddddddkekekk, PS)”, where the note is “KARPAS-229, 4 µM”, the target mRNA inhibition stood at 0%.
Still for that read-out and setting: next, AAGGGCACAGCGCAGG (sugars k2 d11 k3, PS): 0% and 2%; TGAGTAGGACGAGTTA (sugars k3 d10 k3, PS): 18%.
With “GCATTCCATATACACA (sugars kkdddddddddkekek, PS)”, the target mRNA inhibition (KARPAS-229, 4 µM) stood at 2%.
Regarding “CCCAATGCAACATCCA (sugars kkddddddddddkeke, PS)”, the target mRNA inhibition (KARPAS-229, 4 µM) was 0%.
For the setting “KARPAS-229, 4 µM”, “ACTGACACAGGCGGAT (sugars k3 d9 k3 e1, PS)” yielded a target mRNA inhibition of 0%.
Sequence AGTGAGACGAGCAAAG (sugars k3 d10 k3, PS) had a target mRNA inhibition (KARPAS-229, 4 µM) of 16%.
For “GGTTCTTGGACTCTCA (sugars kkddddddddddkeke, PS)”, the target mRNA inhibition runs as follows: (KARPAS-229, 0.44444 µM) 39%; (KARPAS-229, 1.33333 µM) 59%; (KARPAS-229, 4 µM) 51% and 73%; (KARPAS-229, 12 µM) 84%.
As to “GGTCTGGCCCTTTTGG (sugars k3 d9 k3 e1, PS)”, the target mRNA inhibition (KARPAS-229, 4 µM) amounted to 0%.
CTTGGTCTTGACCTCC (sugars k3 d10 k3, PS) displayed a target mRNA inhibition (KARPAS-229, 4 µM) of 41%.
ATACCCAATGCAACAT (sugars k3 d10 k3, PS) came in with a target mRNA inhibition (KARPAS-229, 4 µM) of 1%.
On to “ACATCTCCACATCAGT (sugars k2 d8 e4 k2, PS)”, for which the target mRNA inhibition (KARPAS-229, 4 µM) came to 24%.
On the same count and under the same terms, next, “TATTTCTGCTCCAGGT (sugars kkddddddddkekekk, PS)”: 0%; “CCAATGCAACATCCAT (sugars kkkddddddddkekek, PS)”: 0%.
Under “KARPAS-229, 4 µM”, “CGGTCTTTGAGGTCTG (sugars k3 d9 k3 e1, PS)” had a target mRNA inhibition of 32%.
On to “TGCACTGACACAGGCG (sugars kkkddddddddkekek, PS)”, for which, under “KARPAS-229, 4 µM”, the target mRNA inhibition is 0%.
For the setting “KARPAS-229, 4 µM”, “AGGAAGTGAGTCTCAA (sugars kdddddddddkekeke, PS)” showed a target mRNA inhibition of 23%.
On the same count and under the same terms, next, “GCACTGACACAGGCGG (sugars kddddddddddkekek, PS)”: 0%; “GAGTCATGGGCTGAGG (sugars kkkddddddddkekek, PS)”: 0%.
As to “AGATGGTGTTATCTCC (sugars kkkdddddddddkeke, PS)”, the target mRNA inhibition (KARPAS-229, 4 µM) came out at 8%.
In the case of “TCTGATATGATACCTA (sugars k3 d10 k3, linkages s4 [mop]1 s10)”, the target mRNA inhibition came to 10% (A-431, 0.00412 µM); 14% (A-431, 0.01225 µM); 43% (A-431, 0.03704 µM); 66% (A-431, 0.11111 µM); 80% (A-431, 0.33333 µM); 87% (A-431, 1 µM).
For CCTATACAGCTAGGCC (sugars k3 d10 k3, PS), where the note is “KARPAS-229, 4 µM”, the target mRNA inhibition is 0%.
In the case of “TTATCTCCGTCCTGGC (sugars k2 d9 e3 k2, PS)”, the target mRNA inhibition (KARPAS-229, 4 µM) stood at 5%.
In turn, “AGATGGTGTTATCTCC (sugars kkddddddddddkeke, PS)” yielded a target mRNA inhibition (KARPAS-229, 4 µM) of 0%.
“ACTGACACAGGCGGAT (sugars kkkddddddddkekek, PS)”: the target mRNA inhibition (KARPAS-229, 4 µM) is 0%.
As for TCTAGTGTCATGGAAT (sugars k3 d10 k3, PS), the target mRNA inhibition (KARPAS-229, 4 µM) stood at 14%.
With “TTATCTCCGTCCTGGC (sugars kkdddddddddkdkdk, PS)”, the target mRNA inhibition (KARPAS-229, 4 µM) was determined as 14%.
The same measure, in the same setting: then GAGGAAGTGAGTCTCA (sugars k3 d10 k3, PS), with 0%.
Turning to “TTGTCTAGTGTCATGG (sugars kkkddddddddkekek, PS)”, under “KARPAS-229, 4 µM”, the target mRNA inhibition came out at 16%.
Consider “TGAGTCATGGGCTGAG (sugars kkkddddddddkekek, PS)”, for which, where the note is “KARPAS-229, 4 µM”, the target mRNA inhibition was found to be 0%.
Same read-out and setting: next, “GATGGTGTTATCTCCG (sugars kkddddddddkekekk, PS)”: 0%.
On the same count and under the same terms, then “GGTCTTGACCTCCCGC (sugars kdddddddddkekeke, PS)”, with 35%.
